Source: patent US12016834B2, “Small molecule inhibitors of SLC25A1” (GEORGETOWN UNIVERSITY, priority 2017, dated 2024)

Experiments:
Assay type in all cases: cell-based, human
H1299 cells = assay: Citrate levels in mitochondrial or cytoplasmic fractions; conditions: 4 hours
Procedure: (§1) Cells, reagents, antibodies, primers. The H1299 cell lines and other cell lines employed in this study were obtained from ATCC or from the tissue culture core facility at LCCC. Cells were grown in Dulbecco's Modified Eagle's Medium (DMEM, 25 mM glucose, with glutamine and pyruvate from Invitrogen; Carlsbad, CA) and supplemented with 10% fetal calf serum (FCS). […] The SLC25A1 specific shRNA vectors were purchased from Sigma. The vector expressing human SLC25A1 untagged or Flag-Myc epitope tagged were from Origene; Rockville, MD (#SC120727 and RC200657, respectively). The anti-SLC25A1 antibody used in immuno-blot was from Santa Cruz Biotech, #sc-86392 employed at 1:1000 dilution. Citrate, lactate, and PFK measurements were performed by using commercially available kits (Biovision (Milpitas, CA)).
Mitochondria isolation and cellular sub-fractionation. Mitochondria and cytoplasmic fractions were prepared as follows. Cells were collected in PBS for 5′, then the pellet was e-suspended in 5 packed cell volumes of mitochondria buffer (250 mM sucrose; 20 mM HEPES (7.4); 10 mM KCl, 1.5 mM MgCl2; 1 mM EDTA; 1 mM EGTA 0.5 M, supplemented with freshly added PMSF and 1 mM […]). Cell lysates were passed through a 25 G needle 10 times, then 5 times through a 27 G needle, followed by incubation on ice for 10-15 minutes. Extracts were centrifuged at 720 G for 5 minutes. The supernatant was centrifuged again at 10000 G and the derived pellet provided the mitochondrial fraction and the supernatant provided the cytoplasmic fraction. To extract the mitochondria for measurement of citrate, the pellet from the previous centrifugation was resuspended in PBS and subjected to 3 cycles of freeze-and-thaw in dry ice immersed in ethanol. The fraction was centrifuged again and re-suspended in PBS. The supernatant (containing cytosolic and membrane fractions) was centrifuged multiple times to eliminate particulate material, and was used as the cytosolic fraction.

[1] = tested on: phosphofructokinase (PFK); assay: Phosphofructokinase activity in cells; conditions: 3 hours
Procedure: as §1

MP1 cells [2] = assay: Seahorse OCR and ATP in patient-derived cells; conditions: GMSC versus monolayer; treatment 3 hours
Procedure: (§2) Primary lung cancer cultures and GMSC. Surgical samples were minced and digested with dispase (50 U/ml) in DMEM media containing 5% serum for 1 hour. Pleural effusions were centrifuged, washed once in PBS, and then plated. All primary cultures were initially grown on 6-well plates pre-coated with 2% Geltrex (Life Technologies; Carlsbad, CA) and 1% Maxgel (Sigma Aldrich). Maxgel is a humanized matrix, native and non-denatured. The inclusion of Maxgel in the system enhanced the initial attachment of primary tumor cells, partially because Maxgel provides a more natural ECM conformational substrate. The day after plating, the media containing unattached cells was typically transferred to a fresh plate, in most of cases generating new attached cultures. The media (Stem Cell Media) is the DMEM/F12 (Thermo-Fisher #11320-033 basic media) supplemented with the following components: Insulin-Transferrin-Sodium selenite (ITS; 1:1000; Sigma #11884); glutamine (Thermo-Fisher) to 4 mM final concentration; sodium pyruvate (Thermo-Fisher) to 2 mM final concentration; rock inhibitor (Y-27632) 10 micrograms/mL; 2-5% Knock Out Serum Replacement (KNOSR, Thermo-Fisher #10828-028); 0.5% ALBUMAX-(Lipid enriched BSA; Thermo-Fisher #11020-021); N2 Supplement (Thermo-Fisher) 1:250; EGF (5 ng/ml; Peprotech); hFGF (20 ng/ml; Bechman); and IGF-1 (Peprotech; 10-20 ng/ml).
(§3) Seahorse extracellular flux analyzer experiments. Cells derived from spheres or monolayer cultures were dissociated and plated overnight at 12,000 cells/well in DMEM with 10% FBS, 5 mM glucose, 1 mM pyruvate, 2 mM glutamine.
(§4) For the mitochondrial stress test, the media was replaced with DMEM without FBS or bicarbonate, containing 5 mM glucose, 1 mM pyruvate, 2 mM glutamine and placed in a CO2 free incubator at 37° C. for 1 hour, and then transferred to the Xf96 extracellular flux analyzer (Agilent; Santa Clara, CA). The program consisted of 3 measurements of OCR/ECAR before the injection of each drug: oligomycin (0.5 μM final concentration), FCCP (2 μM) and rotenone/antimycin (0.5 μM of each). For the glycolysis stress test, cells were plated overnight as above, and the media was washed twice the following day with DMEM without FBS, bicarbonate, glucose, glutamine or pyruvate, and incubated in this media in a CO2 free incubator with/without drug treatments at 37° C. for 4 hours. There were 3 measurements of OCR/ECAR before each injection: glucose (10 mM final concentration), oligomycin (0.5 […] (50 mM). For the analysis of glutamine oxidation, the protocol was the same as the glucose stress test, but with glutamine being the only compound injected (final concentration 4 mM) and OCR/ECAR measured for 60 minutes. When spheres were analyzed, they were dissociated with StemPro® Accutase® (Thermo Scientific; Waltham, MA) and plated under the same conditions as above as for the monolayers the day before the assay (H1299 spheres), or in stem cell media (See Stem Cell Media) with the wells coated in 15 μL of 2% geltrex diluted in DMEM:F12 (Thermo Scientific). The results were normalized to cell number.

MP2 cells [3] = assay: Seahorse OCR and ATP in patient-derived cells
Procedure: as §2, §3, §4

MP1 cells [4] = assay: Self-renewal and sphere forming in methylcellulose; conditions: semi-solid media
Procedure: (§5) Self-renewal assays. Tumor cells cultured as spheroids were dissociated and diluted in 2× sphere media containing 1% methyl cellulose, which was previously dissolved in cold DMEM/F12 media. Either 200, 500, or 1000 cells were then plated in each 96 well and were incubated in the presence or absence of drugs, as indicated. The spheres were allowed to form for a period of a week to ten days, at which point they were counted. Six biological replicates were used for quantification of the results.
(§6) Primary lung cancer cultures and GMSC. Surgical samples were minced and digested with dispase (50 U/ml) in DMEM media containing 5% serum for 1 hour. Pleural effusions were centrifuged, washed once in PBS, and then plated. All primary cultures were initially grown on 6-well plates pre-coated with 2% Geltrex (Life Technologies; Carlsbad, CA) and 1% Maxgel (Sigma Aldrich). Maxgel is a humanized matrix, native and non-denatured. The inclusion of Maxgel in the system enhanced the initial attachment of primary tumor cells, partially because Maxgel provides a more natural ECM conformational substrate. The day after plating, the media containing unattached cells was typically transferred to a fresh plate, in most of cases generating new attached cultures. […]

MP2 cells [5] = assay: Self-renewal and sphere forming in methylcellulose; conditions: semi-solid media
Procedure: as §5, §6

MP1 cells [6] = assay: Apoptosis by annexin V and PI flow cytometry
Procedure: Flow cytometry. Tumor cells were trypsinized and washed in 1×PBS. The cells were then stained with the antibodies of choice: CD166-PE (Biolegend), CD133-647 (Biolegend), or CD44 (Biolegend), in 1% BAS-PBS. The cell cycles of monolayers or spheres of the cells were analyzed by fixing the cells in cold 75% ethanol. The annexin V (Biolegend) and propidium iodide (Biolegend) experiments were carried out.

O=C(O)c1ccccc1NS(=O)(=O)c1ccc(Cl)c([N+](=O)[O-])c1 [CTPI-2]
cytoplasmic citrate (H1299 cells; 2D cultures): reduction of cytoplasmic citrate | mitochondrial citrate (H1299 cells; 2D cultures): induced accumulation of mitochondrial citrate | cytosolic citrate (H1299 cells; spheres): without affecting the cytosolic citrate | mitochondrial citrate (H1299 cells; spheres): starkly decreased mitochondrial citrate | PFK activity ([1]; monolayer differentiated cultures): enhanced | PFK activity ([1]; spheres): unchanged | increase of oxygen consumption rates, basal, SRC and mitochondrial ATP output in GMSC cells (MP1 cells [2]): reverted by CTPI-2 more prominently in CSCs than in monolayer cultures | increase of oxygen consumption rates, basal, SRC and mitochondrial ATP output in GMSC cells (MP2 cells [3]; GMSC versus monolayer, treatment 3 hours): reverted by CTPI-2 more prominently in CSCs than in monolayer cultures | basal respiration, SRC and ATP production in cisplatin treated cells (MP2 cells [3]; monolayer cells exposed to cisplatin (FIG. 15A)): blocked basal respiration, SRC and ATP production | self-renewal and sphere forming ability (MP1 cells [4]): blunted self-renewal and sphere forming ability | self-renewal and sphere forming ability (MP2 cells [5]): blunted self-renewal and sphere forming ability | apoptosis (MP1 cells [6]; co-treated with cisplatin and CTPI-2): strong pro-apoptotic effect | apoptosis (MP1 cells [6]; drug alone): did not induce apoptosis
